Key:
Experiment in all cases: relative viability (nuclei count vs DMSO), 5 days (fraction); higher = more cells survive
GW-2580 + AZD7762 = compound: COC1=CC=C(C=C1)COC2=C(C=C(C=C2)CC3=CN=C(N=C3N)N)OC [GW-2580] + NC(=O)Nc1cc(-c2cccc(F)c2)sc1C(=O)N[C@H]1CCCNC1 [AZD7762] (partner 0.2 µM)
Procedure, shortened: (§1)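 Dosing by pin tool came one day after lung cancer cell lines were seeded in 1536-well plates, using either one drug or a fixed anchor-drug dose plus five library-drug doses (not always all listed) in √10 steps. After 5 days, nuclei were counted on 4× images. Relative viability is treated-well nuclei count divided by vehicle-well nuclei count, and values are medians of duplicate plates.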

Fedratinib + Phenformin = compound: Cc1cnc(Nc2ccc(OCCN3CCCC3)cc2)nc1Nc1cccc(S(=O)(=O)NC(C)(C)C)c1 [Fedratinib] + N=C(N)NC(=N)NCCc1ccccc1 [Phenformin] (partner 250 µM)
Procedure, shortened: as §1

Fedratinib + Olaparib = compound: Cc1cnc(Nc2ccc(OCCN3CCCC3)cc2)nc1Nc1cccc(S(=O)(=O)NC(C)(C)C)c1 [Fedratinib] + O=C(c1cc(Cc2n[nH]c(=O)c3ccccc23)ccc1F)N1CCN(C(=O)C2CC2)CC1 [Olaparib] (partner 8 µM)
Procedure, shortened: as §1

GW-2580 + Trametinib = compound: COC1=CC=C(C=C1)COC2=C(C=C(C=C2)CC3=CN=C(N=C3N)N)OC [GW-2580] + CC(=O)Nc1cccc(-n2c(=O)n(C3CC3)c(=O)c3c(Nc4ccc(I)cc4F)n(C)c(=O)c(C)c32)c1 [Trametinib] (partner 0.02 µM)
Procedure, shortened: as §1

GW-2580 + Luminespib = compound: COC1=CC=C(C=C1)COC2=C(C=C(C=C2)CC3=CN=C(N=C3N)N)OC [GW-2580] + CCNC(=O)c1noc(-c2cc(C(C)C)c(O)cc2O)c1-c1ccc(CN2CCOCC2)cc1 [Luminespib] (partner 0.01 µM)
Procedure, shortened: as §1

| Cell Line | relative viability (GW-2580 + AZD7762; first compound 0.08 µM) | relative viability (GW-2580 + AZD7762; first compound 0.8 µM) | relative viability (GW-2580 + AZD7762; first compound 8 µM) | relative viability (Fedratinib + Phenformin; first compound 0.1 µM) | relative viability (Fedratinib + Phenformin; first compound 0.3162 µM) | relative viability (Fedratinib + Phenformin; first compound 1 µM) | relative viability (Fedratinib + Olaparib; first compound 0.1 µM) | relative viability (Fedratinib + Olaparib; first compound 0.3162 µM) | relative viability (Fedratinib + Olaparib; first compound 1 µM) | relative viability (GW-2580 + Trametinib; first compound 0.08 µM) | relative viability (GW-2580 + Trametinib; first compound 0.8 µM) | relative viability (GW-2580 + Trametinib; first compound 8 µM) | relative viability (GW-2580 + Luminespib; first compound 0.08 µM) | relative viability (GW-2580 + Luminespib; first compound 0.8 µM) | relative viability (GW-2580 + Luminespib; first compound 2.53 µM) | relative viability (GW-2580 + Luminespib; first compound 8 µM) | relative viability (GW-2580 + AZD7762; first compound 2.53 µM) | relative viability (GW-2580 + Trametinib; first compound 2.53 µM) |
| --- | --- | --- | --- | --- | --- | --- | --- | --- | --- | --- | --- | --- | --- | --- | --- | --- | --- | --- |
| EMC-BAC-2 | 1.15 | 1.33 | 1.01 | 0.404 | 0.523 | 0.421 | 0.493 | 0.455 | 0.472 | 0.805 | 0.988 | 0.856 | 1.27 | 1.3 | 1.17 | 1.11 |  |  |
| EPLC-272H | 0.221 | 0.315 | 0.297 | 0.3 | 0.32 | 0.173 | 0.601 | 0.847 | 0.459 | 0.281 | 0.273 | 0.32 | 0.274 | 0.204 |  | 0.243 |  |  |
| H3255 | 0.876 | 1.22 | 0.758 | 0.377 | 0.362 | 0.418 | 0.532 | 0.518 | 0.522 | 0.512 | 0.627 | 0.553 | 0.825 | 1.1 | 0.84 | 0.67 | 0.817 | 0.44 |
| HARA | 0.302 | 0.252 | 0.221 | 0.364 | 0.448 | 0.411 | 0.785 | 0.826 | 0.557 | 0.753 | 0.714 | 0.274 | 0.882 | 0.801 | 0.389 | 0.596 | 0.294 | 0.59 |
| HCC-15 | 1.02 | 1.44 | 1.39 | 0.43 | 0.464 | 0.399 | 0.732 | 0.676 | 0.806 | 0.393 | 0.412 | 0.307 | 0.308 | 0.296 | 0.436 | 0.521 | 1.21 | 0.337 |
| HCC-44 | 0.994 | 1 | 0.999 | 0.123 | 0.293 | 0.163 | 0.928 | 0.945 | 0.964 | 1.04 | 1.06 | 0.959 | 1.14 | 0.945 | 0.988 | 1.15 | 1.03 | 0.986 |
| HCC-78 | 0.637 | 0.663 | 0.589 | 0.698 | 0.703 | 0.572 | 0.847 | 0.87 | 0.827 | 0.838 | 0.844 | 0.768 |  |  |  |  | 0.564 | 0.644 |
| HCC-366 | 0.359 | 0.317 | 0.142 | 0.482 | 0.673 | 0.642 | 0.525 | 0.325 | 0.345 | 0.344 | 0.401 | 0.412 |  |  |  |  | 0.27 | 0.295 |
| HCC-827 | 0.207 | 0.244 | 0.214 | 0.388 | 0.42 | 0.464 | 0.606 | 0.528 | 0.749 | 0.555 | 0.552 | 0.568 | 0.92 | 0.762 | 0.508 | 0.56 | 0.201 | 0.483 |

From the supplement of paper PMC10307832
